Experimental data: US4851519A, “Pyrimidine derivatives” (Hoffmann-La Roche Inc., priority 1986, dated 1989)
pIC50: −log10 of the molar value.

Target: herpes simplex virus type 2 (HSV-2) thymidine kinase (Human herpesvirus 2, UniProt P04407)
Test: inhibition of herpes simplex virus type 2 (HSV-2) thymidine kinase in vitro
Assay type: biochemical
Settings: not given
Description: In this test, the assay mixture contains […] Tris-HCl, pH 8, 5 mM magnesium chloride, 5 mM ATP, 0.3 μM ^3 H-thymidine (50 Ci/mmol), suitably diluted thymidine kinase extract and various concentrations of a compound of formula I or a tautomer thereof in a total volume of 100 μl. Assays are incubated at 37° C. for 30 minutes and the reaction is terminated by immersion in a boiling water bath for 2 minutes. 85 μl aliquots from each assay are then dried on to DEAE-cellulose paper discs and the unphosphorylated ^3 H-thymidine is removed by washing in 4 mM ammonium formate. The radioactivity remaining bound to the discs is then measured by scintillation spectrophotometry. The degree of inhibition at each concentration of compound of formula I or tautomer thereof is expressed as a percentage of the control reaction (100%) after substracting a measured blank value which represents the amount of radioactivity bound to the disc from a reaction containing heat inactivated enzymes. the IC50 value, namely, the concentration of compound of formula I or tautomer thereof which inhibits enzyme activity by 50%, is then calculated. The results obtained with representative compounds of formula I are complied in the following Table: […]

herpes simplex virus type 2 (HSV-2) thymidine kinase, sequence (P04407 whole entry): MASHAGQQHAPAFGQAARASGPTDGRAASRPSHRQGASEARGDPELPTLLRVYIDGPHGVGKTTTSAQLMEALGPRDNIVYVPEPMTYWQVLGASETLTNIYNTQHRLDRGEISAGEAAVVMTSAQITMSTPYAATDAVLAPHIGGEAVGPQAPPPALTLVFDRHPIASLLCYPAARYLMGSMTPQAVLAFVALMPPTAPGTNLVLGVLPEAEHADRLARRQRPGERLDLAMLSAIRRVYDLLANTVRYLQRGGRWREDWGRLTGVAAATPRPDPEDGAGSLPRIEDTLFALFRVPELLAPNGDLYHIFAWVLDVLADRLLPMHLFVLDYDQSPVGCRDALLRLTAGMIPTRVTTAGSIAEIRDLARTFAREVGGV

Structure (SMILES)	pIC50
CCc1cn([C@H]2C[C@H](O)[C@@H](CNC(=O)Cc3c(Cl)cccc3Cl)O2)c(=O)[nH]c1=O [Compound B, 5'-[2-(2,6-dichlorophenyl)acetamido]-2',5'-dideoxy-5-ethyluridine]	8.52

Same assay, conditions: HSV-2 thymidine kinase extract; 0.3 μM 3H-thymidine, 5 mM ATP, pH 8, 37° C., 30 minutes; read-out: IC50 (concentration which inhibits enzyme activity by 50%)

pIC50	Structure (SMILES)
8.43	CCc1cn([C@H]2C[C@H](O)[C@@H](CNC(=O)C(C)Oc3ccc(Cl)cc3Cl)O2)c(=O)[nH]c1=O (mixture of isomers) [Compound C, 5'-[2(RS)-(2,4-dichlorophenoxy)propionamido]-2',5'-dideoxy-5-ethyluridine]
8.30	CCc1cn([C@H]2C[C@H](O)[C@@H](CNC(=O)C(C)Oc3ccccc3-c3ccccc3)O2)c(=O)[nH]c1=O (mixture of isomers) [Compound E, 2',5'-dideoxy-5-ethyl-5'-[2(RS)-(2-phenylphenoxy)propionamido]uridine]
8.40	CCc1cn([C@@H]2O[C@H](CNC(=O)C(C)Oc3ccc(Cl)cc3Cl)[C@@H](O)[C@@H]2F)c(=O)[nH]c1=O (mixture of isomers) [Compound F, 1-[5-[2-(RS)-(2,4-dichlorophenoxy)propionamido]-2,5-dideoxy-2-fluoro-β-D-arabinofuranosyl]-5-ethyluracil]
8.89	CCc1cn([C@H]2C[C@H](O)[C@@H](CNC(=O)C(C)Oc3cc(Cl)c(Cl)cc3Cl)O2)c(=O)[nH]c1=O (mixture of isomers) [Compound G, 5'-[2(RS)-(2,4,5-trichlorophenoxy)propionamido]-2',5'-dideoxy-5-ethyluridine]
8.57	CCc1cn([C@H]2C[C@H](O)[C@@H](CNC(=O)C(C)Oc3ccc(Cl)cc3[N+](=O)[O-])O2)c(=O)[nH]c1=O (mixture of isomers) [Compound H, 5'-[2(RS)-(4-chloro-2-nitrophenoxy)propionamido]-2',5'-dideoxy-5-ethyluridine]
8.33	CCc1cn([C@H]2C[C@H](O)[C@@H](CNC(=O)C(Oc3ccc(Cl)cc3Cl)c3ccccc3)O2)c(=O)[nH]c1=O (mixture of isomers) [Compound I, 5'-[2(RS)-(2,4-dichlorophenoxy)-2-phenylacetamido]-2',5'-dideoxy-5-ethyluridine]
8.92	CCc1cn([C@H]2C[C@H](O)[C@@H](CNC(=O)C(C)Oc3cc(OC)c(Cl)cc3Cl)O2)c(=O)[nH]c1=O (mixture of isomers) [Compound J, 5'-[2(RS)-(2,4-dichloro-5-methoxyphenoxy)propionamido]-2',5'-dideoxy-5-ethyluridine]
8.46	CCCc1cn([C@H]2C[C@H](O)[C@@H](CNC(=O)C(C)Oc3ccc(Cl)cc3Cl)O2)c(=O)[nH]c1=O (mixture of isomers) [Compound K, 5'-[2(RS)-(2,4-dichlorophenoxy)propionamido]-2',5'-dideoxy-5-propyluridine]
7.70	CCc1cn([C@H]2C[C@H](O)[C@@H](CNC(=O)Cc3ccccc3Br)O2)c(=O)[nH]c1=O [Compound A, 5'-[2-(2-bromophenyl)acetamido]-2',5'-dideoxy-5-ethyluridine]
7.15	CCc1cn([C@H]2C[C@H](O)[C@@H](CNC(=O)Cc3ccc(-c4ccccc4)cc3)O2)c(=O)[nH]c1=O [Compound D, 5'-[2-(4-biphenylyl)acetamido]-2',5'-dideoxy-5-ethyluridine]
